Results reported in US8063212B2, “Imidazolidinonyl aminopyrimidine compounds for the treatment of cancer” (Eli Lilly and Company, priority 2006, dated 2011).
Read-outs that look alike come from different tables or passages of the source.

Tests used:
HCT116 murine xenografts = settings: HCT116 murine xenograft; cited from earlier work
[1] = test system: NClH460 murine xenografts; settings: NClH460 murine xenograft; cited from earlier work
A549 murine xenografts = settings: A549 murine xenograft; cited from earlier work
[2] = in man; cited from earlier work
HCT116 cells = experiment: Antiproliferative Assay; assay type: cell-based; settings: Homo sapiens, HCT-116, 72 hours, Alamar Blue, n=3, MSR 3.1
Experimental: The effects of compounds on cell proliferation can be determined using cells and cell proliferation methods well-known in the art (Robert C. Squatrito et al., Gynecological Oncology, 58, 101-105, (1995)). For example, HCT116 cells, which may be obtained from the American Type Culture Collection, may be seeded at ˜2000 cells/well in 96-well plates and allowed to attach overnight in a humidified CO2 incubator at 37° C. Following the 20-24 hour incubation, half-log serially diluted compounds are added and the plates are returned to the incubator. After an appropriate length of exposure (e.g., 72 hours), cell proliferation is estimated using well-known methods. In one method, 10 μL of a tetrazolium salt, such as Alamar Blue™ is added to the cell plates. After an appropriate exposure to the dye, fluorescence (530 nm excitation, 580 nm emission) is determined. The resulting IC50 has an MSR of 3.1.

Plk1 = molecular target: T1, Plk1 (Homo sapiens, UniProt P53350); experiment: Plk1 Inhibition Assay; assay type: biochemical; settings: Absolute IC50, 5.0 μM ATP, GST-Cdc25c (1-206) substrate, 60 min; MSR 3.6
T1 construct: made in house; host or cells: baculovirus-infected Sf9 cells, treated with okadaic acid before harvest; the substrate was made in E. coli BL21
From the text: Human Plk1 cDNA, which may be obtained from a number of sources, such as Incyte (accession number: NM_005030), may be directly linked at one of its termini with a polynucleotide sequence expressing a His6 tag, such as the C-terminal FLAG-His6 tag, and inserted into an appropriate expression vector, such as a pFastBac™ vector (Invitrogen) and transfected into an appropriate system, such as baculovirus similar to what has been reported by Yue-Wei Qian, et al., Science, 282, 1701 (1998) for xPlkk1. If a viral expression system is used, then the virus (e.g., baculovirus bearing a Plk1-Flag-His6 tag polynucleotide construct) is infected into a culture of a suitable host cell, such as Sf9 cells. […]
Plk1 kinase reactions contain Plk1-Flag-His6 tag fusion enzyme (0.2 ng/μL) in a buffer containing 50 mM HEPES, pH 7.3, 1.0 mM dithiothreitol, 5.0 μM ATP, 10 mM MgCl2, 0.01% TRITON® X-100, 0.4 μCi ^33P-ATP, and 0.06 μg/μL GST-Cdc25c (1-206) peptide. […] Wells are dried before addition of 40 μL of MicroScint™ 20 (Packard) and then counted on a Wallac MICROBETA® Jet. The percentage inhibition values from the 10-point concentration response data are subsequently analyzed, for example, using ACTIVITY BASE™ software (IDBS), using a 4-parameter logistic equation. Absolute IC50 values are calculated from the resulting curve fit.

HeLa Cells = experiment: pHH3(S10), Mitotic Cells, and DNA Content Assays; assay type: cell-based; settings: Homo sapiens, 23 hours exposure
Experimental: HeLa Cells from the American Type Culture Collection (ATCC) are plated at 200 cells/well in 96 well […] BIOCOAT™ plates, and are incubated in MEM (Minimum Essential Medium, e.g., GIBCO, catalog #11095) with 10% FBS (Fetal Bovine Serum) in 37° C., 5% CO2 for 24 hours. Cells are treated by adding compound (in 0.25% DMSO) to the medium, dosing at 10 points across the range […] to 0.0098 μM. After 23 hours exposure to the compounds, cells are fixed, for example with the PREFER™ fixative [Anatech LTD., Catalog #414] for 30 min then are permeablized with 0.1% TRITON® X100 in phosphate buffered saline (PBS) solution for 15 min. Cells are washed 3 times with PBS then digested with 50 μg/mL RNAse. Primary antibody, phosphohistone H3 (Upstate Cat#06-570), is added at 1:500 in PBS with 1% bovine serum albumin (BSA) to the cells over night at 4° C. After 3 PBS washes, cells are incubated with Alexa488 labeled secondary antibody (Invitrogen cat #A11008) for 1 hour at room temperature. Again they are washed 3 times with PBS, and then 15 μM propidium iodide (Molecular Probes cat #P3566) is added for 30 min to stain nuclei. Fluorescence Plates are scanned with ACUMEN EXPLORER™ [Laser-scanning fluorescence microplate cytometer (comprising of 488 nm argon ion laser excitation and multiple photomultiplier tube detection), manufactured by TTP LABTECH LTD] to measure phosphohistone H3, DNA content and mitotic cells as measured by DNA condensation. Image analysis are based on cellular fluorescent signals for identifying cells in different subpopulations. pHH3(S10) positive cells are identified by mean intensity at 500-530 nm above the threshold. Total intensity at 655-705 nm from propidium iodide/DNA is used to identify individual cells (cells with DNA content from 2N to 4N) and subpopulations in cell cycle (2N cells, 4N cells). Peak intensity at 575-640 nm is used to identify DNA condensation that is used as the marker to identify mitotic cells among 4N cells. […] The ECso is determined by curve fitting to a four parameter logistic for each output using ACTIVITY BASE™.

T1 sequence (P53350 whole entry): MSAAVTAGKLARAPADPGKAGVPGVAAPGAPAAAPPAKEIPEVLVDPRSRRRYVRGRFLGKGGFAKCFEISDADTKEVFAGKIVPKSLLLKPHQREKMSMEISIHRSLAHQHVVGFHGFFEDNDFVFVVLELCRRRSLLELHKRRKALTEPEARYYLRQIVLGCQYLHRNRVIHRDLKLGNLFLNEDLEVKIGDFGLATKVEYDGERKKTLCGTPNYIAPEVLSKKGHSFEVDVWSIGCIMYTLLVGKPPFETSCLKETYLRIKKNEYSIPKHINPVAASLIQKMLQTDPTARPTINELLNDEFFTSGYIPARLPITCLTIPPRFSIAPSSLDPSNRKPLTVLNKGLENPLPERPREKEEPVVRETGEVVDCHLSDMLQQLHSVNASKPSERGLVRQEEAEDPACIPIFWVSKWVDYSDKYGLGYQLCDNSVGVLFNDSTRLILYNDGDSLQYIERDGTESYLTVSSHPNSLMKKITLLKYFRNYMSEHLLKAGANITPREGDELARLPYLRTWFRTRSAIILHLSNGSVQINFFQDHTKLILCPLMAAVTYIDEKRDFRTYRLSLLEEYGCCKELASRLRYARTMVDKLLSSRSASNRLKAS

Row | Structure (SMILES) | activity in preclinical model (HCT116 murine xenografts) | activity in preclinical model [1] | activity in preclinical model (A549 murine xenografts) | clearance (CL) [2] [mL/min] | dose limiting toxicity [2] | IC50 (HCT116 cells) [nM] | IC50 (Plk1) [nM] | EC50 (HeLa Cells; n=1, MSR 2.5, read-out: mitotic EC50) [nM] | EC50 (HeLa Cells; n=1, MSR 2.6, read-out: pHH3(s10) EC50) [nM] | EC50 (HeLa Cells; n=2, MSR 2.4, read-out: DNA content EC50) [nM]
1 | CC[C@@H]1C(=O)N(C)c2cnc(Nc3ccc(C(=O)NC4CCN(C)CC4)cc3OC)nc2N1C1CCCC1 [BI-2536] | demonstrated activity | demonstrated activity | demonstrated activity | > 1000 | dose limited by myelosupression | – | – | – | – | –
2 | CN(C)Cc1cnc(F)cc1-c1cccc2cc(-c3ccnc(NCCN4CCNC4=O)n3)sc12 [Example 4, 1-(2-{4-[7-(5-((Dimethylamino)methyl)-2-fluoropyridin-4-yl)benzo[b]thiophen-2-yl]pyrimidin-2-ylamino}ethyl)imidazolidin-2-one] | – | – | – | – | – | 44 | ~25 | 22 | 24 | 35
